The values that follow come from BindingDB's records for doi:10.7270/Q2JM282R (University of Pittsburgh, 2008).

Broadly, the IC50 is the midpoint of a concentration-inhibition curve. Read a low IC50 as greater potency.

Chain of RAC-alpha serine/threonine-protein kinase (P31749 whole entry): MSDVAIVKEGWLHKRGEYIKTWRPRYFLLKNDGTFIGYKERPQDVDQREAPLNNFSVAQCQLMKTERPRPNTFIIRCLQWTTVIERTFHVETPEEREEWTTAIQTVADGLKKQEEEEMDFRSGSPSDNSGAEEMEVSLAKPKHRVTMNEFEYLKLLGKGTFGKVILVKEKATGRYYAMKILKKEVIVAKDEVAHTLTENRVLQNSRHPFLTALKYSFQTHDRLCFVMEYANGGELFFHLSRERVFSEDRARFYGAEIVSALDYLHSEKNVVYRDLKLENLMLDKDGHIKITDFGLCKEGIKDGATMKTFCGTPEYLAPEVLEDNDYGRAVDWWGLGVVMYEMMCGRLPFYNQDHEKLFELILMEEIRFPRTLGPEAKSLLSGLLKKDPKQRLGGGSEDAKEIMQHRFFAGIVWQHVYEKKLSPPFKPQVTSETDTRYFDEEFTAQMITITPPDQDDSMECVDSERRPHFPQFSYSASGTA

This test has as its target RAC-alpha serine/threonine-protein kinase (Homo sapiens, UniProt P31749). The test is described as follows: off-target activity on human AKT1 kinase – biochemical, 57K library, IC50, selectivity assay for PKD inhibitor project, dose response (AID 1378).
Regarding `O=[N+]([O-])c1ccc(Nc2c3ccccc3nc3ccccc23)cc1` [MLS000723809], the 50% inhibitory concentration (IC50) is over 100 µM.

Compound `COC(=O)c1c(NC(=O)C2C3CCC(C3)C2C(=O)O)sc2c1CCCCC2` (stereo not drawn) [SMR000298221] registered a 50% inhibitory concentration (IC50) of over 100 µM.

Take `CC(N=Nc1ncc(Cl)cc1Cl)c1ccccn1` (stereo not drawn) [3,5-dichloro-N-(1-pyridin-2-ylethylideneamino)pyridin-2-amine]: the IC50 is over 100 µM.

Compound `O=C(CSc1ccc2nnc(-c3cccnc3)n2n1)c1ccccc1` [1-phenyl-2-[[3-(3-pyridinyl)-[1,2,4]triazolo[4,3-b]pyridazin-6-yl]thio]ethanone] displayed an IC50 of over 100 µM.

Compound `Cc1c(C#N)c(N)nc(Cl)c1C#N` [2-amino-6-chloro-4-methyl-3,5-pyridinedicarbonitrile] came in with an IC50 of over 100 µM.

`CCOC(=O)c1sc(=NC(=O)CCS(=O)(=O)c2ccccc2)n(C)c1C` [2-[3-(benzenesulfonyl)-1-oxopropyl]imino-3,4-dimethyl-5-thiazolecarboxylic acid ethyl ester] came in with a 50% inhibitory concentration (IC50) of over 100 µM.

In the case of `CSc1ccccc1C(=O)NCc1ccc(F)cc1`, the IC50 is over 100 µM.

On to `O=C1CSCN1c1cc(Cl)ccc1Cl` [3-(2,5-dichlorophenyl)-1,3-thiazolan-4-one], for which the IC50 was over 100 µM.

As to `COc1ccc(Cn2c(=O)[nH]c3cc(C(=O)NC4CCCC4)ccc3c2=O)cc1` [MLS000730065], the IC50 was over 100 µM.

`O=C(O)c1cc(C(=O)C2CCCCC2)c[nH]1` [4-(cyclohexylcarbonyl)-1H-pyrrole-2-carboxylic acid] registered an IC50 of over 100 µM.

With `COc1ccc(CNC(=O)C2Cc3ccccc3CN2C(=O)c2ccco2)cc1` (stereo not drawn) [SMR000343177], the half-maximal inhibitory concentration (IC50) was over 100 µM.

For the compound `O=C(CSc1ccncc1)Nc1ccc2ccccc2c1` [N-naphthalen-2-yl-2-pyridin-4-ylsulfanylacetamide], the half-inhibitory concentration (IC50) was over 100 µM.

The compound `Cn1cccc1C(=O)NC(=O)COC(=O)c1cc(S(=O)(=O)N2CCCCC2)ccc1Cl` [[2-[(1-methylpyrrol-2-yl)carbonylamino]-2-oxidanylidene-ethyl] 2-chloranyl-5-piperidin-1-ylsulfonyl-benzoate] came in with an IC50 of over 100 µM.

`O=C(Nc1ccccc1C(=O)N1CCCC1)C1COc2ccccc2O1` (stereo not drawn) [SMR000287780] displayed a 50% inhibitory concentration (IC50) of over 100 µM.

Regarding `CCCc1cc(=O)[nH]c(SCCCCN2C(=O)c3ccccc3C2=O)n1` [2-[4-[(4-oxidanylidene-6-propyl-1H-pyrimidin-2-yl)sulfanyl]butyl]isoindole-1,3-dione], the IC50 was over 100 µM.

The compound `Cc1cc(NC(=O)CCC(=O)N(Cc2ccco2)C(C(=O)NCC2CCCO2)c2ccncc2)no1` (stereo not drawn) [N'-(furan-2-ylmethyl)-N-(5-methyl-1,2-oxazol-3-yl)-N'-[2-oxidanylidene-2-(oxolan-2-ylmethylamino)-1-pyridin-4-yl-ethyl]butanediamide] yielded a half-maximal inhibitory concentration (IC50) of over 100 µM.

`CC1Cc2ccccc2N1c1ncnc(N)c1[N+](=O)[O-]` (stereo not drawn) [6-(2-methyl-2,3-dihydro-1H-indol-1-yl)-5-nitro-4-pyrimidinamine] showed a concentration for half-maximal inhibition (IC50) of over 100 µM.

With `O=C(NNC1=Nc2cccc3cccc1c23)c1ccc(Br)cc1` [SMR000260645], the IC50 was over 100 µM.
